Patent EP4714948A1, “COMPOUND USED FOR EGFR PROTEIN DEGRADATION, AND USE THEREOF” (TYK Medicines, Inc., priority 2023, dated 2024)
pIC50: −log10 of the molar value.

What was measured:
H1975 = assay: Cell antiproliferative assay (CTG, 72 h); format: cell-based; conditions: Homo sapiens, NCI-H1975, H1975 (EGFR T790M/L858R)
Procedure: (§1) H1975 has EGFR T790M/L858R dual mutation, PC-9 has EGFR exon 19 deletion mutation, and HCC827 has exon 19 deletion mutation. CellCounting Lite 2.0, Trypsin EDTA, 37 °C CO2 incubator, cell counter, EnVision Serial No.1050454.
(§2) • (A) Trypsin EDTA was used to digest log-phase cells, medium was added to terminate the digestion reaction, and a cell suspension was prepared by blowing and mixing with a pipette. • (B) Cell concentration was determined using Vi-cell, and a suspension of 15,000-25,000 cells per milliliter was made depending on the purpose of the experiment and the characteristics of the cells. • (C) After the cell suspension was ready, it was gently mixed and each well was added with 100µL so that the cell density to be tested was 1,500- 2,500 per well.
(§3) • A) About 2 mg of compound was weighed, and the volume of DMSO required was calculated according to the formula: compound mass (mg)*compound purity (%)/compound molecular weight*1000. • (B) The inoculated cell culture plates were incubated in an incubator. About 24 hours later, compounds were added at gradient concentrations. • (C) 10mM of compound reservoir solution was diluted to […] with medium, and […] of the compound solution was added sequentially to the second column of the deep-well plate, and […] of medium containing 0.5% DMSO was added to the third to eleventh columns. • D) Gradient dilution: 125 µl of solution was pipetted from the second column and added to the third column, after mixing; another 125 µl of solution was pipetted from the third column and added to the fourth column, and the operation was repeated until the tenth column. • (E) 25 µl of compound was pipetted from the deep-well plate into a 96-well culture plate using a multichannel pipette, and each compound was run in triplicate on the 96-well plate. A 1:4 concentration gradient was established on the 96-well plate, with a final highest concentration of 10,000 nM.
(§4) • (A) 96-well plates were incubated in an incubator for 72 h. The effect of the compounds was observed under an inverted microscope. • (B) 25 µl of CTG solution was added to each well. The plate was incubated on a shaker for 10 minutes and the OD value of each well was read.
(§5) The survival rate ( % Cell Viability) was calculated using the following formula: %Cell Viability = 100% × (Lum_Sample−Lum_LC)/(Lum_HC−Lum_LC) [formula] • Lum_HC: Cell reading of 0.1% DMSO control group • Lum_Sample: Cell readings of compound addition group • Lum_LC: Reading of blank medium • IC50 values were obtained by curve fitting using GraphPad Prism 8 software.

HCC827 = assay: Cell antiproliferative assay (CTG, 72 h); format: cell-based; conditions: Homo sapiens, HCC827 (exon 19 deletion)
Procedure: as §1, §2, §3, §4, §5

PC-9 = assay: Cell antiproliferative assay (CTG, 72 h); format: cell-based; conditions: Homo sapiens, PC-9 (EGFR exon 19 deletion)
Procedure: as §1, §2, §3, §4, §5

[1] = biological target: EGFR in BAF3-LTC (Baf3-L858R-T780M-C797S) (Homo sapiens, UniProt P00533, C797S/L858R/T790M); assay: EGFR PROTAC HTRF experiment (total EGFR degradation); format: cell-based; conditions: BAF3-LTC cells, 16 hours incubation
Sequence of EGFR in BAF3-LTC (Baf3-L858R-T780M-C797S) (P00533 25-1210 T790M/C797S/L858R): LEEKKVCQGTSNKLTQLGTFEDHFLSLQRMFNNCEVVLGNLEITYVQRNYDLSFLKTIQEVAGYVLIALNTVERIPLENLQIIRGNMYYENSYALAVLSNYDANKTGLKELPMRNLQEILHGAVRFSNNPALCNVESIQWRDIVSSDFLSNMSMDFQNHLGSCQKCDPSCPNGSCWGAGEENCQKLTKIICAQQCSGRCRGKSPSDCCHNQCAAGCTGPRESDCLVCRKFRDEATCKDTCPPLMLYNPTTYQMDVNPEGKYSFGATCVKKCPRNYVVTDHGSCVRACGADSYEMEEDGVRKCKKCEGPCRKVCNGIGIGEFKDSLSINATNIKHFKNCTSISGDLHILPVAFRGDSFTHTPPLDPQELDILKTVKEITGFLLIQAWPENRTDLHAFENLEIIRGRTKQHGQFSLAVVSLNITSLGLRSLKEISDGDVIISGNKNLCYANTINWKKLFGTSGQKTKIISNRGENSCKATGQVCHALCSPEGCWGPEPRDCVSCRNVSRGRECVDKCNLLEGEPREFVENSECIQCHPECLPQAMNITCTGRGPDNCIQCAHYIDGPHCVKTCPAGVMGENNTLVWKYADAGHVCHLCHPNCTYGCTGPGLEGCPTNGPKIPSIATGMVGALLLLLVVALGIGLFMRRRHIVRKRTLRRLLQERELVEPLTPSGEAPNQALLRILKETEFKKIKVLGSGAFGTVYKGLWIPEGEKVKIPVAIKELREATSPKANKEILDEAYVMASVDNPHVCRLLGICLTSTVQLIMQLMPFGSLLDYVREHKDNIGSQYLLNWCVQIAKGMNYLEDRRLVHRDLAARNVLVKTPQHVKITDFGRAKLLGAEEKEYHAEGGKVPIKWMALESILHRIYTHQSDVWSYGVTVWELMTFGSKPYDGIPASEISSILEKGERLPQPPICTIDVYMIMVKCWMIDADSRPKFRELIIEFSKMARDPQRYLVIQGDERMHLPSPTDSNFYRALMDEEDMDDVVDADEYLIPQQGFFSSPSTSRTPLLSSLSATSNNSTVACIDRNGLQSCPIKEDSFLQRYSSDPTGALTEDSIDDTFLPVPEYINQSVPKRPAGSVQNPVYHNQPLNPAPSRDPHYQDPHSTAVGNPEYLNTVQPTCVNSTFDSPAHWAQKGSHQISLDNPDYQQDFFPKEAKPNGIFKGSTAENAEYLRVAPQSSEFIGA

[2] = biological target: EGFR in BAF3-DTC (Baf3-19del-T780M-C797S) (Homo sapiens, UniProt P00533, C797S/DEL746-750/T790M); assay: as above; format: cell-based; conditions: BAF3-DTC cells, 16 hours incubation
Sequence of EGFR in BAF3-DTC (Baf3-19del-T780M-C797S) (P00533 with tags, fused parts or gaps DEL746-750/T790M/C797S): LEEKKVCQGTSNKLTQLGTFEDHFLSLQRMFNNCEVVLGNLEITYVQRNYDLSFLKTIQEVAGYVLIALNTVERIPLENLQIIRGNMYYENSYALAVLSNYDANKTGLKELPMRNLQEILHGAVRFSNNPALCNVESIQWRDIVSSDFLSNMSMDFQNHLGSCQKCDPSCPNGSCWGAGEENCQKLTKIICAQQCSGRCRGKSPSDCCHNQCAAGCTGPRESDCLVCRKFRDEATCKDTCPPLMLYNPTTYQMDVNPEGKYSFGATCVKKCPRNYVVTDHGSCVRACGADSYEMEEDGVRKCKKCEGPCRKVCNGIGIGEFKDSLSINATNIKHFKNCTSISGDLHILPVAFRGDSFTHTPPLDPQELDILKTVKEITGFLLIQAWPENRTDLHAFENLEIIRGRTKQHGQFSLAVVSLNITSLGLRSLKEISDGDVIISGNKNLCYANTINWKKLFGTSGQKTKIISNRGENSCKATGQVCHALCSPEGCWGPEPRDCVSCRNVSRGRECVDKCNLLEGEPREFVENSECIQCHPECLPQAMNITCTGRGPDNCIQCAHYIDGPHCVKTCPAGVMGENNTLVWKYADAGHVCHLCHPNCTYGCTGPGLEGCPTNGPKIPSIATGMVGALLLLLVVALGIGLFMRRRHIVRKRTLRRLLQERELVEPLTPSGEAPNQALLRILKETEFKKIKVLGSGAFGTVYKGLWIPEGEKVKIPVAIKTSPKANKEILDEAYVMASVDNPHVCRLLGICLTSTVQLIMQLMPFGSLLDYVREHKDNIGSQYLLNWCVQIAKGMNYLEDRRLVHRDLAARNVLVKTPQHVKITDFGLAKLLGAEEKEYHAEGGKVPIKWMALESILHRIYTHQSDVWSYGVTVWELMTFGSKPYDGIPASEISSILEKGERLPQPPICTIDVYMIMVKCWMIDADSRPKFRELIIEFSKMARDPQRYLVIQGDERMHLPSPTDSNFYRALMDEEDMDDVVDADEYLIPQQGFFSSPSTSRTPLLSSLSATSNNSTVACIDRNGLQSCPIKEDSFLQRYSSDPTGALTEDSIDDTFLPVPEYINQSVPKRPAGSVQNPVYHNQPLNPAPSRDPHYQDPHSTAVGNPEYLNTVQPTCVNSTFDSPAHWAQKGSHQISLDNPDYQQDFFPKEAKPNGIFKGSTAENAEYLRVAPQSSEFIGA

[3] = Pharmacokinetic test on male SD rats; format: in vivo; conditions: gavage (p.o.), 10 mg/kg, plasma; for AUC(0-inf) / AUC(0-t) / Cmax / MRT last / Tmax: rat, po
Procedure: Healthy adult SD rats, male, a total of 3, 6-8 weeks old; Weighing 200-300 grams.
EDTA-Na2 anticoagulant: 11.2 g of EDTA-Na2 was weighted and placed into a reagent bottle. 100 mL of physiological saline was added and the mixture was shaken until completely dissolved. After preparation, the solution was aliquoted into 1.5 mL centrifuge tubes, each containing approximately 20 uL, for use in whole blood sample collection.
Approximately 10 mg of the test sample was accurately weighed. DMSO accounting for 10% of the total volume was added to dissolve the sample. Subsequently, 0.5% MC solvent accounting for 90% of the total volume was slowly added while stirring. The mixture was sonicated and vortexed evenly, and a visually homogeneous preparation solution was obtained, with a concentration of 1 mg/mL. This solution should be freshly prepared immediately before use.
0.2 mL of the sample was pipetted into a 1.5 mL centrifuge tube and stored at -80°C for concentration analysis of the dosing solution.
Animals were kept in rat cages and fasted for no less than 10 hours on the day before the experiment, but were allowed to drink water. The animals were individually weighed and marked on their tails. Prior to dosing, blank blood samples were collected from each animal via the tail vein.
• Administration route: gavage (p.o.) • Dosage concentration: 1mg/ml • Dosage: 10 mg/kg • Dosage volume: 10 mL/kg
Operation process: The rat was grasped with a left hand protected by a bite-resistant glove and held in an upright position. The gavage needle was inserted through the mouth and advanced towards the pharynx. The needle was advanced gently, ensuring no significant resistance was felt. The drug was then injected into the stomach.
At 0.5 h, 1 h, 2 h, 4 h, 6 h, 8 h, 12 h, and 24 h post-dosing, 0.1-0.2 mL of whole blood was collected from each test animal into EDTA-Na2 anticoagulant tubes. The tubes were mixed by inverting 3-4 times. The samples were centrifuged at 2000 × g and 4 °C for 5 minutes. The upper plasma layer was to separated, promptly transferred to -80 °C for storage until analysis. The blood was collected via tail vein.
A quantitative detection method for the test compound was established using a Shimadzu liquid chromatography system and a Triple Quad™ 6500+ AB mass spectrometry (MS) system. This method was used to analyze the concentration of the parent drug in plasma. The variation of the analysis results was controlled using quality control (QC) samples, and the accuracy of the QC samples was required to be within the range of 80%-120%.
The main pharmacokinetic parameters were calculated using the non-compartmental model (NCA) with the WinNonlin Phoenix software. These parameters include: area under the concentration-time curve (AUC(0-t) and AUC(0-∞)), elimination half-life (T1/2), maximum plasma concentration (Cmax), and time to reach maximum plasma concentration (Tmax), etc.

Compound	pIC50 (H1975)	pIC50 (HCC827)	pIC50 (PC-9)	DC50 [1] [nM]	Dmax [1] [%]	DC50 [2] [nM]	Dmax [2] [%]	HL_ [3] [h]	AUC(0-inf) [3] [ng·h/mL]	AUC(0-t) [3] [ng·h/mL]	Cmax [3] [ng/mL]	MRT last [3] [h]	Tmax [3] [h]
CCc1cc(Nc2ncc(Cl)c(Nc3ccccc3C(=O)NC)n2)c(OC)cc1N1CCN(C(=O)CN2CCN(c3ccc(NC4CCC(=O)NC4=O)cc3F)CC2)CC1 (centres unmarked) [Compound T-029]	7.00 to 8.00	6.00 to 7.00	6.00 to 7.00	100 to 1000	70 to 100	10 to 100	50 to 70	2.51	8210	7900	1010	5.65	4.67
CCc1cc(Nc2ncc(Cl)c(Nc3ccccc3C(=O)NC)n2)c(OC)cc1N1CCN(CCN2CCC(c3ccc(NC4CCC(=O)NC4=O)cc3)CC2)CC1 (centres unmarked) [Compound T-023]	> 8.00	7.00 to 8.00	6.00 to 7.00	10 to 100	70 to 100	10 to 100	70 to 100	9.28	76300	61600	4060	10	6

The remaining lines, values ahead:

pIC50 (H1975)	pIC50 (HCC827)	pIC50 (PC-9)	DC50 [1] [nM]	Dmax [1] [%]	DC50 [2] [nM]	Dmax [2] [%]	HL_ [3] [h]	AUC(0-inf) [3] [ng·h/mL]	AUC(0-t) [3] [ng·h/mL]	Cmax [3] [ng/mL]	MRT last [3] [h]	Tmax [3] [h]	Compound
> 8.00	6.00 to 7.00	6.00 to 7.00	10 to 100	70 to 100	10 to 100	70 to 100	4.39	11300	11000	1020	7.78	4	CCc1cc(Nc2ncc(Cl)c(Nc3ccccc3C(=O)NC)n2)c(OC)cc1N1CCN(C(=O)CN2CCC(c3ccc(NC4CCC(=O)NC4=O)cc3F)CC2)CC1 (centres unmarked) [Compound T-067]
7.00 to 8.00	6.00 to 7.00	6.00 to 7.00	100 to 1000	50 to 70	100 to 1000	50 to 70	2.61	24400	24000	2290	7.49	2.67	CCc1cc(Nc2ncc(Cl)c(Nc3ccccc3C(=O)NC)n2)c(OC)cc1N1CCN(C(=O)CC2(O)CCN(c3ccc(NC4CCC(=O)NC4=O)cc3F)CC2)CC1 (centres unmarked) [Compound T-037]
> 8.00	7.00 to 8.00	7.00 to 8.00	10 to 100	70 to 100	10 to 100	70 to 100							CCc1cc(Nc2ncc(Cl)c(Nc3ccccc3C(=O)NC)n2)c(OC)cc1N1CC2(CN(C(=O)CN3CCC(c4ccc(NC5CCC(=O)NC5=O)cc4)CC3)C2)C1 (centres unmarked) [Compound T-080]
